Experimental data from ChEMBL document CHEMBL5346934 (J Med Chem, 2023).

Tests used:
[1] = Cytotoxicity against African green monkey VERO cells assessed as inhibition of cell growth incubated for 24 hrs by MTT assay; type: toxicity, cell-based; conditions: chlorocebus sabaeus
[2] = system: Vaccinia virus; experiment: Antiviral activity against Vaccinia virus GFP infected in green […] cells assessed as reduction in plaque formation measured after 2.5 days by microscopic analysis; type: functional, organism-based; conditions: Orthopoxvirus vaccinia, HT-1080, 60 h
[3] = system: Vaccinia virus; experiment: Antiviral activity against Vaccinia virus GFP infected in green monkey CV-1 cells assessed as reduction in plaque formation measured after 2.5 days by microscopic analysis; type: functional, organism-based; conditions: Orthopoxvirus vaccinia, CV-1, 60 h
[4] = system: Vaccinia virus; experiment: Antiviral activity against Vaccinia virus infected in human HFF cells measured after 4 days by colorimetric assay; type: functional, organism-based; conditions: Orthopoxvirus vaccinia, 96 h
[5] = system: Vaccinia virus; experiment: Antiviral activity against Vaccinia virus IHD infected in African green monkey Vero cells assessed as reduction in plaque formation measured after 7 days; type: functional, organism-based; conditions: Orthopoxvirus vaccinia, 168 h
[6] = system: Vaccinia virus; experiment: Antiviral activity against wild type Vaccinia virus IHD infected in monkey Vero cells assessed as reduction in plaque formation measured after 7 days; type: functional, organism-based; conditions: Orthopoxvirus vaccinia, 168 h
[7] = system: Vaccinia virus; experiment: Antiviral activity against Vaccinia virus infected in African green monkey BSC-1 cells incubated for 24 hrs by microscopic analysis; type: functional; conditions: Orthopoxvirus vaccinia
[8] = system: Vaccinia virus; experiment: Antiviral activity against Vaccinia virus Copenhagen infected in human HFF cells assessed as assessed as reduction in virus-induced cytopathic effect incubated for 7 days by microscopic analysis; type: functional, organism-based; conditions: Orthopoxvirus vaccinia, 168 h
[9] = system: Cowpox virus; experiment: Antiviral activity against Cowpox virus Brighton infected in human HFF cells assessed as assessed as reduction in virus-induced cytopathic effect incubated for 7 days by microscopic analysis; type: functional, organism-based; conditions: 168 h
[10] = system: Variola virus; experiment: Antiviral activity against Variola virus 7124 infected in African green monkey BSC-1 cells; type: functional, organism-based; conditions: Variola virus, 7124, BSC-1
[11] = system: Cowpox virus; experiment: Antiviral activity against Cowpox virus Brighton infected in Vero cells measured after 4 days by colorimetric assay; type: functional, organism-based; conditions: 96 h
[12] = system: Vaccinia virus; experiment: Antiviral activity against Vaccinia virus Lister infected in human HEL cells assessed as virus-induced cytopathic effect measured after 5 days by microscopic analysis; type: functional, organism-based; conditions: Orthopoxvirus vaccinia, 120 h
[13] = system: Vaccinia virus; experiment: Antiviral activity against Vaccinia virus Copenhagen infected in HFF cells measured after 3 days by colorimetric assay; type: functional, organism-based; conditions: Orthopoxvirus vaccinia, 72 h
[14] = system: Vaccinia virus; experiment: Antiviral activity against wild type Vaccinia virus infected in African monkey Vero cells measured after 5 days by MTT assay; type: functional, organism-based; conditions: Orthopoxvirus vaccinia, 120 h
[15] = system: Camelpox virus; experiment: Antiviral activity against Camelpox virus infected in human HEL cells assessed as reduction in virus-induced cytopathic effect measured after 5 days by microscopic analysis; type: functional, organism-based; conditions: 120 h
[16] = system: Vaccinia virus; experiment: Antiviral activity against Vaccinia virus Copenhagen infected in human HFF cells assessed as reduction in viral replication measured after 3 days; type: functional, organism-based; conditions: Orthopoxvirus vaccinia, 72 h
[17] = system: Vaccinia virus; experiment: Antiviral activity against Cowpox virus Brighton infected in human HFF cells assessed as reduction in viral replication measured after 3 days; type: functional, organism-based; conditions: Orthopoxvirus vaccinia, 72 h
[18] = system: Vaccinia virus; experiment: Antiviral activity against Vaccinia virus Copenhagen infected in African green monkey Vero cells; type: functional, organism-based; conditions: Orthopoxvirus vaccinia
[19] = system: Cowpox virus; experiment: Antiviral activity against Cowpox virus Grishak infected in African green monkey Vero cells; type: functional, organism-based
[20] = system: Ectromelia virus; experiment: Antiviral activity against ectromelia virus K-1 infected in Vero cells; type: functional, organism-based; conditions: K-1, Vero
[21] = system: Vaccinia virus; experiment: Antiviral activity against wild type Vaccinia virus infected in human HFF cells assessed as reduction in viral replication measured after 5 days by microscopic analysis; type: functional, organism-based; conditions: Orthopoxvirus vaccinia, 120 h
[22] = system: Vaccinia virus; experiment: Antiviral activity against Vaccinia virus IHD-J infected in BSC40 cells assessed as reduction in plaque formation measured after 72 hrs by crystal violet staining based analysis; type: functional, organism-based; conditions: Orthopoxvirus vaccinia, BSC-40, 72 h
[23] = system: Vaccinia virus; experiment: Antiviral activity against Vaccinia virus WR-GFP infected in BSC40 cells assessed as reduction in plaque formation measured after 72 hrs by crystal violet staining based analysis; type: functional, organism-based; conditions: Orthopoxvirus vaccinia, BSC-40, 72 h
[24] = Inhibition of D4 receptor (unknown origin); parameters: species or system Homo sapiens
[25] = system: Vaccinia virus; experiment: Antiviral activity against Vaccinia virus infected in African green monkey Vero cells assessed as reduction virus induced cytopathic effect incubated for 24 hrs by MTT assay; type: functional, organism-based; conditions: Orthopoxvirus vaccinia
[26] = system: Vaccinia virus; experiment: Antiviral activity against Vaccinia virus infected in monkey BSC40 cells assessed as reduction in virus-induced cytopathic effect; type: functional, organism-based; conditions: Orthopoxvirus vaccinia, BSC-40
[27] = system: Human alphaherpesvirus 2; experiment: Antiviral activity against Herpes simplex virus 2; type: functional, organism-based
[28] = system: Vaccinia virus; experiment: Antiviral activity against Vaccinia virus infected in human HFF cells; type: functional, organism-based; conditions: Orthopoxvirus vaccinia
[29] = system: Vaccinia virus; experiment: Antiviral activity against Vaccinia virus infected in African green monkey Vero cells incubated for 24 hrs; type: functional, organism-based; conditions: Orthopoxvirus vaccinia
[30] = system: Vaccinia virus; experiment: Antiviral activity against Vaccinia virus infected in African green monkey BSC-1 cells; type: functional, organism-based, Orthopoxvirus vaccinia; conditions: Orthopoxvirus vaccinia, BSC-1
[31] = system: Monkeypox virus; experiment: Antiviral activity against Monkeypox virus infected in African green monkey BSC-1 cells; type: functional, organism-based
[32] = system: Cowpox virus; experiment: Antiviral activity against Cowpox virus infected in African green monkey BSC-1 cells; type: functional, organism-based
[33] = system: Vaccinia virus; experiment: Antiviral activity against Vaccinia virus VG9 infected in African green monkey BSC-1 cells; type: functional, organism-based, Orthopoxvirus vaccinia; conditions: Orthopoxvirus vaccinia, VG9, BSC-1
[34] = system: Vaccinia virus; experiment: Antiviral activity against Vaccinia virus infected in human HFF cells assessed as reduction in plaque formation measured after 7 days by colorimetric assay; type: functional, organism-based; conditions: Orthopoxvirus vaccinia, 168 h

For CC1(C)[C@@H]2CC[C@@]1(C)/C(=N/Nc1nc(-c3ccc(Br)cc3)cs1)C2, the CC50 at 24 h [1] was 77.1 µM.

For O=[N+]([O-])c1cc(/C=N/c2ccccc2/N=C/c2ccc(O)c(O)c2)ccc1O, the EC50 [2] was 10.9 µM and the EC50 [3] was 13.2 µM.

With NC(=O)c1cn([C@@H]2O[C@H](CO)[C@@H](O)[C@H]2O)c2ncnc(N)c12 [SANGIVAMYCIN] the EC50 [4] was 0.065 µM.

With C=C(CC)C(=O)c1ccc(OCC(=O)O)c(Cl)c1Cl [ETHACRYNIC ACID] the EC50 [5] was 20 µM and the EC50 [6] was 40 µM.

In the case of CCCCCCCCNCCC[C@@H](C)[C@H]1CC[C@H]2[C@@H]3[C@H](OCCCN)C[C@@H]4C[C@H](OCCCN)CC[C@]4(C)[C@H]3C[C@H](OCCCN)[C@]12C, the EC90 [7] is reported as 9.15 µM.

Compound O=S(=O)(c1ccc(C2=CSC(Nc3ccc(F)cc3)N2CCCCCCO)cc1)N1CCCC1 (stereo not given) has an EC50 [8] of 4.6 µM and an EC50 [9] of 4.5 µM.

With O[C@H]1[C@H]2c3cc4c(cc3CN3CCC(=C[C@@H]1O)[C@H]23)OCO4 [LYCORINE] the EC50 [10] was 5 µM.

With Cc1cn([C@@]2(C)C[C@H](O)[C@@H](CO)S2)c(=O)[nH]c1=O the EC50 [11] was 0.48 µM, the EC50 [12] was 0.41 µM and the EC50 [13] was 0.48 µM. For the same compound, the EC50 [14] was 0.8 µM and the EC50 [15] was 0.79 µM.

With NC(=S)N/N=C1\C(=O)Nc2ccccc21 the EC50 [16] was 14 µM and the EC50 [17] was 60 µM.

Work on CC1(C)[C@@H]2CC[C@@]1(C)C(NC(=O)c1ccc([N+](=O)[O-])cc1)C2 (stereo not given in full) yielded an EC50 [18] of 0.03 µM, an EC50 [19] of 1.4 µM and an EC50 [20] of 0.41 µM.

With CC(=O)Oc1ccccc1C(=O)Nc1ncc([N+](=O)[O-])s1 [NITAZOXANIDE] the EC50 [21] was 1.95 µM.

O=C1CN(C(=O)c2nccs2)C(c2cccc(Cl)c2)c2cc(Br)ccc2N1 (stereo not given) gave an EC50 [22] of 0.5 µM and an IC50 [23] of 1.3 µM.

Compound CCC(C(=O)Nc1sc(C(N)=O)c(C)c1C(=O)OC)c1ccccc1 (stereo not given) has an IC50 [24] of 13.4 µM, an EC50 [18] of 18.7 µM and an EC50 [19] of 8.4 µM. It also gave an EC50 [25] of 19.7 µM.

Compound COc1ccc(CCNC(=O)c2cc3ccccc3cc2O)cc1-c1ccc([N+](=O)[O-])cc1 has an EC50 [26] of 12 µM.

Work on Oc1ccc(Cl)cc1Sc1cc(Cl)ccc1O [FENTICLOR] yielded an IC50 [27] of 2.4 µM and an IC50 [28] of 5.7 µM.

In the case of CCc1ccc(S(=O)(=O)c2ccc(Cl)cc2)cc1, the EC50 [29] is reported as 18.6 µM.

In the case of O=C1c2c(O)ccc(O)c2C(=O)c2c(NCCNCCO)ccc(NCCNCCO)c21 [MITOXANTRONE], the EC50 [30] is reported as 0.5 µM, the EC50 [31] is reported as 0.8 µM and the EC50 [10] is reported as 0.25 µM. The EC50 [32] was 0.25 µM and the EC50 [33] was 0.7 µM.

With CCNC(=O)OCC12CC3CC(CC(C3)C1)C2 the EC50 [29] was 14.8 µM.

In the case of CC[C@H](CO)Nc1nc(NCc2ccccc2O)c2ncn(C(C)C)c2n1 [OLOMOUCINE II], the EC50 [34] is reported as 3.8 µM.

CN1C(=O)/C(=N\NC(N)=S)c2ccccc21 [METHISAZONE] gave an EC50 [16] of 3.3 µM and an EC50 [17] of 14 µM.
